# According to patent publication US20230096978A1, “MOR RECEPTOR AGONIST COMPOUND, PREPARATION METHOD THEREFOR, AND USE THEREOF” (CHENGDU EASTON BIOPHARMACEUTICALS CO., LTD., priority 2020, published 2023):
# Where “and” joins values, the source holds several entries; their conditions need not be identical. Equal entries are not always repeated. Where two headings read alike, the source gives them in different places.
# Assays:
# [1] = test system: colonic motility (glass bead expulsion) in mice; experiment: Mouse colonic glass bead expulsion time test; format: in vivo; conditions: C57BL/6 mice, 1 mg/kg single tail vein injection, n = 10; for Mean Expulsion Time: beads inserted 20 min after administration, limit 120 min, Mean ± S.E.M.; for Expulsion Time Prolonging Rate (ETPR): relative to solvent control
# Experimental: 1. Test purpose: to test the effect of the test compound on the expulsion time of colonic glass beads from mice, and to preliminarily investigate its inhibitory effect on colonic motility.
# Administered via tail vein injection at an equal dose of 1 mg/kg;
# After 6-7 days of adaptive feeding of C57BL/6 mice, the animals fasted with free access to water for 12-16 hours and then randomly divided into 10 groups, 10 mice per group. Each group employed a single administration via tail vein, and the administration volume was 10 mL/kg. The solvent control group was given a vehicle (normal saline) via tail vein. 20 min after the administration, glass beads preheated to 37° C. with a diameter of 2 mm were pushed into the rectum at a distance of 2 cm through the anus. Timing was immediately started and the animals were placed individually in the observation cage to observe the time for the glass beads to be expulsed (the observation time limit was 120 min). If the glass beads had not been expulsed by the end of the observation period, the animals were euthanized and the rectum was dissected to confirm that the glass beads were still in the intestinal tract.
# Colonic Expulsion Rate (CER)=number of animals that successfully expulsed glass beads during the observation period/total number of animals in this group×100%;
# Expulsion Time Prolonging Rate (ETPR)=(mean expulsion time of test sample group—mean expulsion time of solvent control group)/mean expulsion time of solvent control group×100%;
# Percent Maximum Possible Effect (% Maximum Possible Effect, Percent MPE)=(mean expulsion time of test sample group—mean expulsion time of solvent control group)/(120-mean expulsion time of solvent control group)×100%; Calculation and related statistical processing were performed on the test data using Microsoft Office Excel 2007 and GraphPad Prism software. Unless otherwise specified, the data were shown as mean±standard error (Mean±S.E.M.), and the comparison between groups was performed by one-way ANOVA, and the Dunnett's method was used for pairwise comparison test.
# [2] = target: T1, KOR(Kappa opioid receptor) (Homo sapiens, UniProt P41145); experiment: cAMP agonistic activity assay, KOR stably transfected cell line; format: cell-based
# T1 construct: expressed in transfected cells
# T1 sequence (P41145 whole entry): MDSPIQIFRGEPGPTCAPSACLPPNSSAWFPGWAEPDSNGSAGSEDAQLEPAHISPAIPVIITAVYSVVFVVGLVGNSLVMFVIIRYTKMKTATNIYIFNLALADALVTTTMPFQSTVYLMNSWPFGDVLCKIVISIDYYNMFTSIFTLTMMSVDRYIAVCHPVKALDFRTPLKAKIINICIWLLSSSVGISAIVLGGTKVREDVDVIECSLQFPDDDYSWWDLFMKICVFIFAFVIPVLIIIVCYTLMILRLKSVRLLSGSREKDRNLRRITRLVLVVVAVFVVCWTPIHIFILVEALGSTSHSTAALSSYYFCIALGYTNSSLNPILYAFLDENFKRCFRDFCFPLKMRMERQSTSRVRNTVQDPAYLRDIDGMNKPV
# Experimental: (§1) 1. Test purpose: to detect the agonistic activity of compound samples utilizing MOR (Mu opioid Receptor), KOR(Kappa opioid receptor), and DOR (Delta Opioid Receptor) stably transfected cell lines and using the established cAMP assay detection platform.
# (§2) a. All samples were dissolved with DMSO to a storage concentration of 30 mM.
# (§3) b. A sample dilution sequence was prepared on a 384-well LDV plate. The first concentration point is 6 mM, with a 3.162-fold serial dilution and a total of 11 concentration points.
# (§4) c. The sample dilution sequence was transferred to an test plate (Corning-3824) using the Echo machine, corresponding to transfer of 50 nL per well.
# (§5) d. 50 nL of HPE or ZPE was transferred to the corresponding location of the test plate using the Echo machine.
# (§6) 2.2 Test operation of cAMP agonistic activity detection
# (§7) a. Assay buffer and stimulation buffer (STB) required for the test were formulated.
# (§8) b. 5 μL of STB was firstly added to each well of the test plate (with 50 nL of compound already in the well), and then 5 μL of cell suspension was added thereto.
# (§9) c. The test plate was incubated in a constant temperature incubator at 37° C.
# (§10) d. A standard concentration curve of cAMP was created. The first concentration point was 2848 nM, with a 4-fold serial dilution and a total of 16 detection concentrations, and each concentration point was in triplicate.
# (§11) e. cAMP detection reagent (Cisbio #62AM4PEJ) was added to the sample test plate and cAMP standard concentration test plate. 5 μL of D2 reagent was added first, and then 5 μL of Cryptate reagent was added.
# (§12) f. The test plates were read on the Envision after being left for 60 minutes at room temperature.
# [3] = target: T2, DOR (Delta Opioid Receptor) (Homo sapiens, UniProt P41143); experiment: cAMP agonistic activity assay, DOR stably transfected cell line; format: cell-based
# T2 construct: expressed in transfected cells
# T2 sequence (P41143 whole entry): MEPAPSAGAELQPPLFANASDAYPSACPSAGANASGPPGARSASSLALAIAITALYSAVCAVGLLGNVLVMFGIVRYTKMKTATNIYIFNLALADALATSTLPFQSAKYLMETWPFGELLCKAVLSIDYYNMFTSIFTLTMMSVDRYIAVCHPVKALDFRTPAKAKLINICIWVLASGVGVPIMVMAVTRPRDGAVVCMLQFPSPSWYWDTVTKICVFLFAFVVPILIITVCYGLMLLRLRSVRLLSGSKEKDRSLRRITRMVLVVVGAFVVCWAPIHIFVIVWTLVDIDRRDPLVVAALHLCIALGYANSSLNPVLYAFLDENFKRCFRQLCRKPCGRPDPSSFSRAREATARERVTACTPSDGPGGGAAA
# Experimental: as §1, §2, §3, §4, §5, §6, §7, §8, §9, §10, §11, §12
# [4] = test system: thermal radiation tail-flick pain threshold in rats; experiment: Rat thermal radiation tail-flick pain threshold test; format: in vivo, SD rats; conditions: 0.7 mg/kg tail vein injection, Mean ± SEM; for Maximum percentage of analgesia (MPE) 0.5 h: 0.5 h after administration, n = 10; for Maximum percentage of analgesia (MPE) 1 h: 1 h after administration; for Maximum percentage of analgesia (MPE) 2 h: 2 h after administration; for Maximum percentage of analgesia (MPE) 3 h: 3 h after administration
# Experimental: 1. Test purpose: to measure the effect of each compound sample on the pain threshold of rats by using the rat thermal radiation tail flick method.
# Administered via tail vein injection at an equal dose of 0.7 mg/kg;
# The rats (SD rats, SPF grade, with body weight of 220-250g, purchased from Beijing Vital River Laboratory Animal Technology Co., Ltd.) were firstly fixed in a special plastic cylinder, so that their tails were exposed and drooped naturally. Test was performed after the animals were quiet. […] The measured time interval was the tail-flick response latency, which is 3 s to 5 s in normal rats, and those with greater than 5 s or less than 3 s were excluded. Then, measurement was made every 5 min, and the mean of three measurements was taken as the basic nociceptive threshold. If the animal stayed more than 10 s under analgesic effect, the irradiation was stopped and 10 s was used as the upper limit of the tail flick latency to avoid burning the skin by the too-long irradiation. After the rats were given a certain dose of the drug, the pain thresholds of the rats were measured at different times.
# After the rats were given a certain dose of the drug, the pain threshold of the rats was measured at 0.5 h, 1 h, 2 h, and 3 h. The maximum percentage of analgesia (% MPE) after administration was calculated, of which the calculation formula was as follows: MPE(%)=(pain threshold after administration−pain threshold before administration)/(10s−pain threshold before administration))×100%
# [5] = target: T3, MOR (Mu opioid Receptor) (Homo sapiens, UniProt P35372); experiment: cAMP agonistic activity assay, MOR stably transfected cell line; format: cell-based; conditions: for EC50 against μ receptor relative to that of TRV130: ratio of EC50 to TRV130
# T3 construct: expressed in transfected cells
# T3 sequence (P35372 whole entry, species assumed): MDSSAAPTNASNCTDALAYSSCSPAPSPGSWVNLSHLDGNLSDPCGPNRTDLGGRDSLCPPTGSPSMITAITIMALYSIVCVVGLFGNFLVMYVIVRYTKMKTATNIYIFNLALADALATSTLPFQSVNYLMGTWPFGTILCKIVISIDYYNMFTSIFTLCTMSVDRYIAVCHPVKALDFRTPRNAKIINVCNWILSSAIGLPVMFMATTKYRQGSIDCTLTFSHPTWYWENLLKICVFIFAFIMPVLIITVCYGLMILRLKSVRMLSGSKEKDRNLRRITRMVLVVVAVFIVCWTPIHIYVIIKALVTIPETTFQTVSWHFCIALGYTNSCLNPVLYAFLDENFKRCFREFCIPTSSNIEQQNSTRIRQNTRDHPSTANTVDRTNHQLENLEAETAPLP
# Experimental: as §1, §2, §3, §4, §5, §6, §7, §8, §9, §10, §11, §12
# [6] = Pharmacokinetic test after single tail vein injection; format: in vivo; conditions: SD (Sprague-Dawley), rat, plasma, iv; SD rats, single tail vein injection 2 mg/kg, n = 3
# Experimental: 1. Test purpose: to investigate the pharmacokinetic parameters of each compound in the Experimental Example after a single tail vein administration.
# Administered via tail vein at an equal dose of 2 mg/kg;
# Blood was collected from the jugular vein before administration and 5 min, 10 min, 15 min, 20 min, 30 min, 45 min, 1h, 2h, 4h, 6h, 8h, 24 h after administration. 200 μL of whole blood was taken at each time point and was placed in an anticoagulation tube containing EDTA-K2, and centrifuged at 2000g at a low temperature of 4° C. to separate the plasma. The plasma was transferred to a microcentrifuge tube, and stored in a −80° C. refrigerator for later use.
# By establishing a reliable LC/MS/MS analysis method, the blood concentration of each sample was detected, and the pharmacokinetic parameters of each compound were calculated.
# [7] = agonistic effect, cAMP assay, κ opioid receptor, read-out: EC50 κ
# [8] = agonistic effect, cAMP assay, δ opioid receptor, read-out: EC50 δ
# [9] = agonistic effect, cAMP assay, μ opioid receptor, read-out: EC50 μ
# [10] = n = 10, listed as positive compound, 0.7 mg/kg
SMILES,Mean Expulsion Time [1],Percent Maximum Possible Effect (Percent MPE) [1],Expulsion Time Prolonging Rate (ETPR) [1],EC50 [2],EC50 [3],Maximum percentage of analgesia (MPE) 0.5 h [4],"Maximum percentage of analgesia (MPE) 1 h ([4]; n = 10, 0.7 mg/kg)","Maximum percentage of analgesia (MPE) 2 h ([4]; n = 10, 0.7 mg/kg)","Maximum percentage of analgesia (MPE) 3 h ([4]; n = 10, 0.7 mg/kg)",EC50 [5],EC50 against μ receptor relative to that of TRV130 [5],AUC(0-t) [6],Cmax [6],Tmax [6],half-life [6],"EC50 [2, 7]","EC50 [3, 8]","EC50 [5, 9]",also measured
COc1ccc2occ(CNCC[C@@]3(c4ccccn4)CCOC4(CCCC4)C3)c2c1 [Example 1],17.40 ± 5.84^※※♦♦ min,11.55%,333.92%,51.4 µM,65.3 µM,100.00%,89.95±7.06% and 89.95%,86.51±10.06% and 86.51%,65.91±5.76% and 65.91%,0.00021 µM,about 1/10,585 ± 25.9 ng·h/mL,601 ± 32.5 ng/mL,6.6 ± 3 min,190.2 ± 1.2 min,,,,
c1ccc([C@]2(CCNCc3coc4ccccc34)CCOC3(CCCC3)C2)nc1 [Example 2],25.85 ± 5.88^※※♦ min,18.83%,544.64%,39.8 µM,22.2 µM,100.00%,82.81±9.77% and 82.81%,79.23±10.51% and 79.23%,55.50±6.85% and 55.50%,0.0029 µM,the same order of magnitude,379 ± 63.1 ng·h/mL,309 ± 43 ng/mL,9 ± 0.6 min,137 ± 7.8 min,,,,EC50 against κ receptor relative to that of TRV130 ([2]; ratio of EC50 to TRV130): about 7 times; EC50 against δ receptor relative to that of TRV130 ([3]; ratio of EC50 to TRV130): about 7 times
c1ccc([C@]2(CCNCc3coc4ccc(O[C@@H]5CCOC5)cc34)CCOC3(CCCC3)C2)nc1 [Example 3],18.99 ± 6.55^※※♦♦ min,12.91%,373.57%,,,100.00%,86.89±7.34% and 86.89%,82.95±8.69% and 82.95%,61.46±8.58% and 61.46%,,about 1/10,532 ± 50.6 ng·h/mL,543 ± 72.8 ng/mL,9 ± 1.2 min,177 ± 20.4 min,56.8 µM,32.5 µM,0.00056 µM,
Fc1ccc([C@]2(CCNCc3ccccc3-c3ccncc3)CCOC3(CCCC3)C2)cc1 [Example 4],19.13 ± 3.93^※※♦♦ min,13.04%,377.06%,,,100.00%,85.79±9.25% and 85.79%,83.78±11.31% and 83.78%,60.92±2.45% and 60.92%,,about 1/10,563 ± 31.8 ng·h/mL,552 ± 48.7 ng/mL,10.8 ± 1.8 min,194 ± 6.6 min,54.5 µM,42.7 µM,0.0045 µM,
"COc1ccsc1CNCC[C@@]1(c2ccccn2)CCOC2(CCCC2)C1 [TRV130, oliceridine, reference compound]",37.57 ± 4.31^※※ min,28.93%,836.91%,5.77 µM,3.14 µM,100.00%,88.69%,70.01%,49.32%,,,319 ± 30.6 ng·h/mL,235 ± 22.7 ng/mL,8.4 ± 6 min,56.4 ± 1.8 min,,,,"Maximum percentage of analgesia (MPE) 1 h [4, 10]: 88.69±1.52%; Maximum percentage of analgesia (MPE) 2 h [4, 10]: 70.01±8.01%; Maximum percentage of analgesia (MPE) 3 h [4, 10]: 49.32±7.12%"
